The target in this test is human thrombin (Homo sapiens, UniProt P00734). In words: Fluorescence-based thrombin inhibition assay. The format is biochemical.

15 compounds from article PMC9048847 (RSC Advances, 2020) can be followed below.

Some results are limits rather than exact numbers.

The IC50 is the midpoint of a concentration-inhibition curve. High values mean weaker potency in that assay, low ones greater potency in that assay.

As to `O=c1cc(-c2ccccc2)oc2cc(O)c(O)c(O)c12` [compound 23, Baicalein, reference compound], the IC50 was 36.1 ± 4.68 µM.

`O=C1C[C@@H](c2ccc(O[C@@H]3O[C@H](CO)[C@@H](O)[C@H](O)[C@H]3O)cc2)Oc2cc(O)ccc21` [compound 12, liquiritin]: the IC50 was greater than 100 µM.

As to isoliquiritin apioside [compound 8], the “Anti-thrombin activity (in words)” value is given as “moderate”.

For the compound `CC(C)=CCc1cc(-c2oc3cc(O)cc(O)c3c(=O)c2O)ccc1O` [compound 15, isolicoflavonol], the IC50 was greater than 100 µM.

Consider `CC1(C)[C@@H](O)CC[C@]2(C)[C@H]3C(=O)C=C4[C@@H]5C[C@@](C)(C(=O)O)CC[C@]5(C)CC[C@@]4(C)[C@]3(C)CC[C@@H]12` [compound 18, glycyrrhetinic acid], for which the IC50 is greater than 100 µM.

`CC(C)=CCc1c(O)cc2oc(-c3ccc(O)cc3)c(O)c(=O)c2c1O` [compound 14, licoflavonol] yielded an IC50 greater than 100 µM.

`CC1(C)[C@@H](O[C@H]2O[C@H](C(=O)O)[C@@H](O)[C@H](O)[C@H]2O[C@@H]2O[C@H](C(=O)O)[C@@H](O)[C@H](O)[C@H]2O)CC[C@]2(C)[C@H]3C(=O)C=C4[C@@H]5C[C@@](C)(C(=O)O)CC[C@]5(C)CC[C@@]4(C)[C@]3(C)CC[C@@H]12` [compound 19, glycyrrhizic acid] yielded a half-maximal inhibitory concentration (IC50) greater than 100 µM.

Consider `CC1(C)C=Cc2c(ccc3c2OC[C@@H](c2ccc(O)cc2O)C3)O1` [compound 20, glabridin], for which the IC50 was greater than 100 µM.

Regarding `COc1c(CC=C(C)C)c(O)cc2oc(=O)c(-c3ccc(O)cc3O)cc12` [compound 16, glycycoumarin], the IC50 is greater than 100 µM.

Consider `COc1cc(O)ccc1/C=C/C(=O)c1ccc(O)cc1` [compound 6, echinatin], for which the “Anti-thrombin activity (in words)” value was “moderate” and the IC50 was 28.5 ± 2.65 µM.

Turning to `O=C(/C=C/c1ccc(O)cc1)c1ccc(O)cc1O` [compound 2, isoliquiritigenin], the “Anti-thrombin activity (in words)” value is listed as “moderate” and the IC50 amounted to 17.9 ± 2.75 µM.

As to `COc1c2c(cc3oc(=O)c4c5ccc(O)cc5oc4c13)OC(C)(C)CC2` [compound 17, isoglycyrol], the half-maximal inhibitory concentration (IC50) is greater than 100 µM.

Regarding `O=C(/C=C/c1ccc(O[C@@H]2O[C@H](CO)[C@@H](O)[C@H](O)[C@H]2O)cc1)c1ccc(O)cc1O` [compound 1, isoliquiritin], the “Anti-thrombin activity (in words)” value is “moderate” and the IC50 was found to be 38.8 ± 4.04 µM.

`COc1cc(O)c2c(=O)cc(-c3ccc(OC)c(-c4c(O)cc(O)c5c(=O)cc(-c6ccc(O)cc6)oc45)c3)oc2c1` [compound 22, Ginkgetin, reference compound] came in with an IC50 of 8.05 ± 1.5 µM.

The compound `CC(C)=CCc1cc([C@@H]2CC(=O)c3ccc(O)c(CC=C(C)C)c3O2)ccc1O` [compound 11, glabrol] returned an IC50 greater than 100 µM.
